Assay results taken from patent US10052333B2, “Methods and systems for the delivery of a therapeutic agent” (HANANJA EHF, priority 2007, dated 2018).

Columns and labels:
[1] = Viscosity of formulation components; assay type: physicochemical; conditions: neat component as listed in formulation tables
[2] = Intranasal versus intravenous pharmacokinetics in New Zealand White rabbits; conditions: 5 mg/mL in mPEG 350, 50 μL into each nasal cavity
Procedure: In this Example, 10 mg lorazepam is dissolved in 2 mL of mPEG 350 using ultrasound to obtain a solution containing 5 mg/mL of lorazepam. 50 μL of the resulting composition is administered into each nasal cavity of male New Zealand White rabbits held in a supine position during, and then one minute after application. An Eppendorf pipette is used for each application. After administration, blood samples then are harvested from a marginal ear vein at 0, 2, 5, 10, 15, 30 and 60 minutes, and the lorazepam concentration determined by high performance liquid chromatography (HPLC). The pharmacokinetics of lorazepam delivery via intranasal administration can then be compared with the pharmacokinetics of lorazepam delivery by intravenous administration.
In this Example, 10 mg of midazolam is dissolved in 2 mL of mPEG 350 using ultrasound to obtain a solution containing 5 mg/mL midazolam. 50 μL of the resulting composition is then administered into each nasal cavity of male New Zealand White rabbits, held in a supine position during, and then one minute after application. After administration, blood samples then are harvested from a marginal ear vein at 0, 2, 5, 10, 15, 30 and 60 minutes, and the midazolam concentration determined by HPLC. […]

[3] = after nasal administration, adults; cited from earlier work
[4] = nasal gel, carbopol in PEG 400, rats; cited from earlier work

Compound | Viscosity (cP) of component [1] [cP] | Pharmacokinetics of intranasal versus intravenous administration [2] | further results
CC(O)CO (stereo not drawn) [Propylene glycol] | 40 | – | –
O=C1Nc2ccc(Cl)cc2C(c2ccccc2Cl)=NC1O (stereo not drawn) [lorazepam] | – | comparable to those of the intravenously administered lorazepam | Time to peak concentration [3]: 2.3 h
COC(=O)C1=C(C)NC(C)=C(C(=O)OC)C1c1ccccc1[N+](=O)[O-] [nifedipine] | – | – | Time to peak plasma concentration [4]: 30 min
O [Water] | 1 | – | –
Cc1ncc2n1-c1ccc(Cl)cc1C(c1ccccc1F)=NC2 [midazolam] | – | comparable to those of the intravenously administered midazolam | –
